Results from US20240247031A1, “COMPOSITION FOR TREATING CANCER CONTAINING TELOMERASE-TARGETING GNRH ANTAGONIST-DERIVED PEPTIDE HS1002” (Research & Business Foundation Sungkyunkwan University, priority 2023, published 2024).

Assays:
MC38 tumor = assay: MC38 syngeneic mouse tumor model (FIG. 19); format: in vivo; settings: 1 mg/kg s.c. every day
Procedure: All mice were purchased from Central Lab Animal Inc. ([…]). They were raised in a 12 h environmental light/dark cycle with controlled temperature (22±2° C.) conditions. The experimental protocol was approved by the Sungkyunkwan University Institutional Animal Care and Use Committee (SKKUIACUC2021-06-27-1, SKKUIACUC2023-01-07-1). For the establishment of tumors, LNCaP (1×10^7), MC38 (2×10^5), and 4T1 (1×10^6) suspended in serum-free media containing 50% Matrigel was subcutaneously administered in the right flank of mice, respectively. The tumor volumes (V) were calculated using a caliper and the standard equation: V (mm^3)=0.52 (ab^2) (a=length, b=width). Once the tumor reached 100-200 mm^3, the mice were randomly divided into different groups and subcutaneously injected with a vehicle or each peptide every day.
The sequences of the TERT peptide are highly conserved in human and mouse, indicating its potential translatability to mouse cancer. […] Hot tumors are generally more responsive to immunotherapy. In contrast, ‘Cold’ tumors such as the 4T1 tumor model lack infiltrating T cells and often have a low tumor mutational burden. Without a pre-existing adaptive immune response, cold tumors are insensitive to immunotherapy. […]

[1] = tested on: BAX, C-PARP, Bcl-2 in LNCaP; assay: Western blot of proteins involved in apoptosis (FIG. 9); format: cell-based, human; settings: different concentrations, 48 h
Procedure: The prostate cancer cell line (LNCaP) was seeded into six-well plates and then incubated in an incubator for one day. The peptides were diluted in fresh media and then used to treat the cells. After 48 h, the media were removed, the plates were washed twice with DPBS, and 1 mL of trypsin was placed in each well to separate the cells, and 5 mL of media were added to each well to dilute the trypsin, followed by centrifugation at 1000 rpm for 5 min, thereby preparing the cells. Thereafter, proteins were extracted using a Pro-prep protein extraction kit, separated by electrophoresis, and blotted onto a membrane. The membrane was blocked by a Blotting-Grade Blocker at room temperature for 1 hour, and then primary antibodies (1000:1) were added, followed by incubation at 4° C. for one day. Thereafter, the membrane was repeatedly washed with 1×TBST (Tris 25 g, NaCl 120 g in D.W.+[…] 0.1%) every 10 min for 1 h. Then, secondary antibodies (10000:1) were added, followed by incubation at room temperature for 1 h, and then the membrane was repeatedly washed with 1×TBST every 10 min for 1 h. After incubation with […] substrates for 5 min, desired protein bands were identified using a Chemi-doc system.

HEK293-GnRHR cells = target: T1, HEK293-GnRHR cells (Homo sapiens, UniProt P30968); assay: Intracellular calcium flux assay; format: cell-based
T1 construct: GFP; expressed in transfected cells
T1 sequence (P30968 1-328): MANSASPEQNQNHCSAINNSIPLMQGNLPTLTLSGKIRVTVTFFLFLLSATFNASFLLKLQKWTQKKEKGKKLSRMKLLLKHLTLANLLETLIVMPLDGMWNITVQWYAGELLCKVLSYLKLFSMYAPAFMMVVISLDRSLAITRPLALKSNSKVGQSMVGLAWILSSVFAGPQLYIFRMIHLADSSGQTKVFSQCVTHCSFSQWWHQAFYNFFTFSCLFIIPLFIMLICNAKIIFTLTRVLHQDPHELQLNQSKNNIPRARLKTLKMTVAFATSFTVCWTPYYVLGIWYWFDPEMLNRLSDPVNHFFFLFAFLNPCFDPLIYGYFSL
Procedure: Human embryonic kidney cell line (HEK293), and mouse cancer cell lines (MC38, 4T1) were purchased from the American Type Culture Collection (Manassas, VA, USA). All cell lines were grown in Dulbecco's Modified Essential Medium (DMEM) or Roswell Park Memorial Institute (RPMI) 1640 supplemented with 10% FBS, 100 U/mL penicillin, and 100 μg/mL streptomycin (WelGENE, Daegu, South Korea) in a humidified atmosphere of 5% CO2 at 37° C. To obtain GnRHR-overexpressing HEK293 (HEK293-GnRHR) cells, transfection of the pCMV-AC-GFP-GnRHR vector (HEK293-GnRHR) was performed using Lipofectamine™ 3000 according to the manufacturer's instructions (Cat. 100022052, Thermo Fisher Scientific, Waltham, MA, USA). Colonies of geneticin-resistant cells were selected by adding G418 (800 μg/mL, Sigma) to the culture medium. The HEK293-pCMV-AC-GFP vector (HEK293-Vector) cells were used as a mock-transfection group.
Intracellular calcium mobilization was measured using the Calcium Flux Assay Kit (Cat. ab233472, abcam) in response to different concentrations of each peptide. The percentage increase was calculated relative to basal fluorescence intensity. The experiment was performed in triplicate.

CCNC(=O)[C@@H]1CCCN1C(=O)[C@@H](NC(=O)[C@H](Cc1ccccc1)NC(=O)[C@H](CCCNC(=N)N)NC(=O)[C@H](CC(C)C)NC(=O)[C@H](CCCNC(=N)N)NC(=O)[C@H](Cc1ccc(O)cc1)NC(=O)[C@H](CO)NC(=O)[C@H](Cc1c[nH]c2ccccc12)NC(=O)[C@H](Cc1c[nH]cn1)NC(=O)[C@@H]1CCC(=O)N1)[C@@H](C)CC [HS1002]
tumor volume (MC38 tumor): diminished
tumor weight (MC38 tumor): diminished
expression level of BAX [1]: increased
expression level of Bcl-2 [1]: decreased
expression level of C-PARP [1]: increased
calcium flux (HEK293-GnRHR cells; 100 nM): increased calcium flux in HEK293-GnRHR cells
calcium flux (HEK293-GnRHR cells; 1 and 10 nM): increased calcium flux
